PubChem BioAssay (NCI)
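Grown in 96-well plates, cells were treated for 48 hours with each compound at five concentrations. Insufficient inhibition: endpoint recorded as highest concentration tested. At the TGI there is no net growth.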

What was measured:
Test in all cases: NCI-60 cell line screen, 48 h
HCC-2998 colon = test system: HCC-2998 colon
M14 melanoma = test system: M14 melanoma
MALME-3M melanoma = test system: MALME-3M melanoma
MDA-MB-231 breast = test system: MDA-MB-231 breast
NCI-H226 lung = test system: NCI-H226 lung
PC-3 prostate = test system: PC-3 prostate
SF-268 CNS = test system: SF-268 CNS
SK-MEL-28 melanoma = test system: SK-MEL-28 melanoma
SN12C renal = test system: SN12C renal
SR leukemia = test system: SR leukemia
UO-31 renal = test system: UO-31 renal

Compound | TGI (HCC-2998 colon) [µM] | TGI (M14 melanoma) [µM] | TGI (MALME-3M melanoma) [µM] | TGI (MDA-MB-231 breast) [µM] | TGI (NCI-H226 lung) [µM] | TGI (PC-3 prostate) [µM] | TGI (SF-268 CNS) [µM] | TGI (SK-MEL-28 melanoma) [µM] | TGI (SN12C renal) [µM] | TGI (SR leukemia) [µM] | TGI (UO-31 renal) [µM]
O=C(O)c1c(CC(Cc2ccc3c(c2)CCCC3)C(=O)O)ccc2c1CCCC2 (stereo not drawn) | > 100 | > 100 | > 100 | > 100 | > 100 | > 100 | > 100 | > 100 | > 100 | > 100 | > 100
COc1cccc(NCC(=O)Nn2c(-c3ccccc3)nc3ccccc3c2=O)c1 | > 100 | > 100 | > 100 | > 100 | > 100 | > 100 | > 100 | > 100 | > 100 | > 100 | > 100
Oc1cc(Cl)cc2cc(Br)cnc12 | > 73.9 | 6 | 21 | > 100 | > 88.5 | > 100 | > 48.1 | > 100 | > 100 | > 20.1 | > 72.1
N#Cc1c(=O)c2cc([N+](=O)[O-])ccc2n2c1[nH]c1ccccc12 | > 100 | > 64.6 | 35.4 | > 57.4 | > 51 | > 100 | > 100 | > 64.8 | > 100 | 96.6 | > 57.4
OC1C(O)C(O)C(O)C(O)C1O (stereo not drawn) | > 1000 | > 1000 | > 1000 | > 1000 | > 1000 | > 1000 | > 1000 | > 1000 | > 1000 | > 1000 | > 1000
O=c1c2cc(Br)ccc2oc2nc3n(c(=O)c12)CCCS3 | > 100 | > 100 | > 100 | > 100 | > 100 | > 100 | > 100 | > 100 | > 100 | > 100 | > 100
OC(c1cccs1)c1cc2ccccc2s1 (stereo not drawn) | > 10 | > 10 |  | > 10 | > 10 | > 10 | > 10 | > 10 | > 10 | > 10 | > 10
Clc1ccc(OCc2nnc3sc(-c4ccc(-c5ccc(Cl)cc5Cl)o4)nn23)c(Cl)c1 | 36.6 | 76.5 | 39.4 | 33.3 | 41.5 | 33.1 | 32.5 | 60.9 | 38.9 | 25.5 | 44.4
OCCCSc1ccccc1SCCCO | > 100 | > 100 |  | > 100 |  | > 100 | > 100 | > 100 | > 100 | > 100 | > 100
O=S(=O)(O)CCS | > 100 | > 100 | > 100 | > 100 | > 100 | > 100 | > 100 | > 100 | > 100 | > 100 | > 100
OCCSCCCSCCO | > 100 | > 100 |  | > 100 |  | > 100 | > 100 | > 100 | > 100 | > 100 | > 100
Oc1ccc(-c2nc3cc(C(F)(F)F)ccc3n2CC2CCCN3CCCCC23)cc1 (stereo not drawn) | 21.5 | 32.3 |  | 27.6 | 32.2 | 27.1 | 28.1 | 29.6 |  | 35.8 | 25.1
COc1ccc(C(=O)N2CCN(c3ccc4c(c3)OCC(=O)N4)CC2)cc1 | > 100 | > 100 | > 100 | > 100 | > 100 | > 100 | > 100 | > 100 | > 100 | > 100 | > 100
C#CC(O)/C=C/CCCCCCC#CC/C=C\CC#CCCCCCC/C=C/C(O)C#C (stereo not drawn) | 3.39 | 2.26 |  | 8.9 | 14 | 24.4 | 10.8 | 4.58 | 4.02 | 18 | 0.915
COC(=O)C1OC(O[C@H]2CC[C@]3(C)[C@H]4CC=C5[C@@H]6CC(C)(C)CC[C@]6(C(=O)OC)[C@H](O)C[C@@]5(C)[C@]4(C)CC[C@H]3C2(C)C)C(O)C(O)C1O (stereo partly drawn) | 8.64 | 18.3 | 25.4 | 21.8 | 31.7 | 19.8 | 29.5 | 23.8 | 25.9 | 15.9 | 26.9
CCOC(OCC)C(CC)[Se]c1ccccc1[N+](=O)[O-] (stereo not drawn) | 14.3 | 15.3 | > 100 | > 100 | 18.4 | > 100 | 63.9 | > 100 | > 61.2 | > 40.1 | > 100
COc1ccc(CNc2nc(NCc3ccc(OC)cc3)nc(Nc3ccccc3)n2)cc1 |  | > 100 | > 100 | > 100 | > 100 | > 100 | > 100 | > 100 | > 100 | 3.81 | > 100
CC(C)(C)NC(NC(C)(C)C)=C(C(Cl)=C(Cl)Cl)[N+](=O)[O-] | > 100 | > 100 | > 100 | > 100 | > 100 | > 100 | > 100 | > 100 | > 100 | > 100 | > 100
CC(=O)Oc1ccn2nc(C)c(Br)c2c1Br | 49.9 | 34.7 | 40.6 | 54.3 | > 60.2 | 43.7 | > 90.1 | 45 | > 57.8 | > 100 | > 29.6
C/C(Cl)=N\OC(=O)Nc1ccccc1C(F)(F)F | > 100 |  | 48.1 | 46.9 |  | > 100 | > 100 | 42.3 | > 100 | 44.9 | > 100
COC(=O)NCCc1[nH]nc2c1C(=O)C=C(OC)C2=O | > 100 | 33.9 | 28.8 | 30.4 | 50.5 | 95.8 | 36 | 35.3 | 38.8 | 36.6 | 50.1

Compound | TGI (HCC-2998 colon) [µM] | TGI (M14 melanoma) [µM] | TGI (MALME-3M melanoma) [µM] | TGI (MDA-MB-231 breast) [µM] | TGI (NCI-H226 lung) [µM] | TGI (PC-3 prostate) [µM] | TGI (SF-268 CNS) [µM] | TGI (SK-MEL-28 melanoma) [µM] | TGI (SN12C renal) [µM] | TGI (SR leukemia) [µM] | TGI (UO-31 renal) [µM]
Cc1ccc(/C=C2\NC(=S)N(CN3CCOCC3)C2=O)cc1 |  | > 100 | > 100 | > 100 | > 100 | > 100 | > 100 | > 100 | > 100 | > 100 | > 100
COc1nn(Cc2ccccc2F)c2ccc([N+](=O)[O-])cc12 | > 100 | > 100 | > 100 | > 100 | > 100 | > 100 | > 100 | > 100 | > 100 | > 100 | > 100
Cc1cccc2sc(NC(=O)c3cc([N+](=O)[O-])ccc3Cl)nc12 | 40.2 | 5.32 | 30.3 | > 100 | > 64.1 | 38.4 | > 33.7 | > 94.2 | 3.34 | > 100 | 10.4
Cn1c(-c2csc(-c3ccc(Cl)cc3)n2)n[nH]c1=S | > 100 | > 100 | 69.6 | 69.4 | 57.3 | > 100 | 81.4 | > 100 | > 100 | > 100 | 44.9
COC(=O)C(NC(=O)CNC(=O)CSc1nnc(COc2ccc(Cl)cc2)n1-c1ccccc1)C(C)C (stereo not drawn) | 34 | 38.5 | 35.5 | 36.5 | 38.3 | 33 | 42.7 | 31.1 | 35.9 | 52.3 | 33.3
Cc1cc2c(cc1O)CC[C@@H]1[C@@H]2CC[C@]2(C)[C@@H](O)CC[C@@H]12 | 24.1 | 21.4 | 19.4 | 21.8 |  | 37.7 | 46.8 | 27.3 | 31.2 | 5.5 | 37.6
C=C1C(=O)OC2/C=C(\C)C(O)CC(O)C(C)(O)CC(OC(=O)/C(C)=C/C)C12 (stereo not drawn) | > 100 | > 100 | > 100 | > 100 | > 100 | > 100 | > 100 | > 100 | > 100 | > 55.9 | > 100
O=C(O)c1c(-c2c3ccc(=O)cc-3oc3cc(O)ccc23)cc2ccccc2c1-c1ccccc1 | > 68.4 | > 100 | > 100 | > 100 | > 100 | > 100 | > 100 | > 100 | > 100 | > 100 | > 100
O=[N+]([O-])c1ccc(Cl)cc1C1ON=C(c2ccccc2)N1C12CC3CC(CC(C3)C1)C2 (stereo not drawn) | > 100 | > 100 | > 100 | > 100 | > 100 | > 100 | > 100 | > 100 | > 100 | > 100 | > 100
O=[N+]([O-])CC(SCc1ccccc1)c1ccc2c(c1)OCO2 (stereo not drawn) | 10.5 | 13.1 | 30.1 | 25.6 | 23.2 | 33.1 | > 61.2 | 17 | 25.7 | 8.51 | 22.2
O=C1CC(Br)c2c(Cl)sc(Cl)c21 (stereo not drawn) | 24.4 | 26.5 | 25.6 | 22.7 |  | 23.4 | 26.6 | 30.3 | 30.6 | 32.2 | 15.7
COC(=O)C1=NN2c3ccccc3C(=O)OCCC2C1 (stereo not drawn) | > 100 |  | > 100 | > 100 | > 100 | > 100 | > 100 | > 100 | > 100 | > 100 | > 100
C=CCN1C(=O)/C(=C/c2ccc(C)cc2)N=C1SC/C=C/C | > 100 | > 100 | 93.4 | > 100 | > 100 | > 100 | > 100 | > 100 | > 100 | 42.4 | > 100
O=C1Oc2ccccc2C(=O)/C1=C/N1C(=O)/C(=C/c2ccc([N+](=O)[O-])cc2)SC1=S | 42.2 | 65.6 | > 100 | 57.2 | 53.4 | 61.7 | 75.4 | 85.7 | 51.6 | > 100 | 
Cc1cc(C)c2c(n1)S(=O)(=O)N(CCCN1CCN(c3cccc(C(F)(F)F)c3)CC1)/C(=C(\O)c1ccccc1)C2=O |  | > 100 | > 100 | 71.8 | 7.92 | > 100 | > 100 | 57.5 | > 100 | 18.7 | 52.7
N#CC1C(=O)Nc2sc(C(=O)c3ccc(Br)cc3)c(N)c2C12CCCCC2 (stereo not drawn) | 57.7 | 39 | 84.2 | 67.7 | 80.8 | 57.1 | > 100 | 47.7 | > 100 | > 100 | > 100
Oc1[nH]c2ccccc2c1N=NC1=NCCCCN1 | > 100 | > 100 | > 100 | > 100 | > 100 | > 100 | > 100 |  | > 100 | > 100 | > 100
CC1(C)OCC2OC3([C@H](O)CCO)OC(C)(C)OC3C2O1 (stereo partly drawn) | > 100 | > 100 |  | > 100 | > 100 | > 100 |  | > 100 | > 100 | > 100 | > 100
COc1cc(/C=C2\N=C(c3ccccc3)N(C3Nc4cc5c(cc4S3)NC(N3C(=O)/C(=C/c4cc(OC)c(OC)c(OC)c4)N=C3c3ccccc3)S5)C2=O)cc(OC)c1OC (stereo not drawn) | > 100 | > 100 |  | > 100 | > 100 | > 100 | > 100 | > 100 |  | > 100 | > 100
CO/N=C1\CCC2(O)C3Cc4ccc(O)c5c4C2(CCN3CC2CC2)[C@H]1O5 (stereo partly drawn) |  | > 100 | > 100 | > 100 | > 100 | > 100 | > 100 | > 100 | > 100 | > 100 | > 100
